Laboratory results as given in patent publication US10905703B2, “Preparation of a composition containing stilbene glycoside” (priority 2015, dated 2021).

Legend:
[1] = compared with resveratrol; cited from earlier work
[2] = rats, cited from earlier work
[3] = system: female KK CgAy/J mice; experiment: Anti-diabetic effect of stilbene glycoside in female KK CgAy/J mice incl. glucose and insulin tolerance tests; assay type: in vivo; conditions: for blood / serum glucose level vs diabetic control: stilbene glycoside 0.075% in drinking water, metformin 300 mg/kg; for insulin tolerance test: level of glucose: 30 minutes after insulin injection
Excerpt: Female KK CgAy/J mice were also utilized in this experiment and handled with the same protocol as in 1.2.3. The mice were divided into four groups with 10 each, and fed with Western HFD. […] Body weight, food and water uptake of the mice were taken on a regular basis. After 12 weeks, all the experimental mice were sacrificed. Similar measurements were taken to the previous experiment with PM extract. Before sacrifice, all the experimental mice were subjected to glucose and insulin tolerance tests. For glucose tolerance test, mice were fasted overnight and injected with glucose solution at 1 g/10 ml and 10 ml/kg body weight. The change in blood glucose level was monitored during the following two hours. For insulin tolerance test, mice were fasted for 5 hours and injected with insulin solution at 1 u/ml and 10 ml/kg body weight. The change in blood glucose level was monitored during the following two hours.

[4] = cited from earlier work
[5] = system: male CF-1 mice; experiment: Animal study with pure trans- and cis-stilbene glycoside in high fat diet induced male CF-1 mice; assay type: in vivo; conditions: for serum glucose level / GTT: rise in blood glucose level / effect on glucose intolerance / serum insulin levels: 0.01% in drinking water; for serum glucose level: HFD for 12 weeks, FIG. 12; for GTT: rise in blood glucose level / effect on glucose intolerance / serum insulin levels: HFD 12 weeks; for GTT: rise in blood glucose level / effect on glucose intolerance: intraperitoneal glucose; for serum insulin levels: vs HF group
Excerpt: Male CF-1 mice were selected as the model for type 2 diabetes. The mice were kept on Western HFD for 12 weeks and were divided into five groups with 10 each. Group I: Normal control which had free access to drinking water and normal Chow; Group II: Diabetic control which had free access to drinking water and Western HFD; Group III: Treatment group which had free access to drinking water with 0.01% of pure trans-stilbene glycoside and HFD; Group IV: Treatment group which had free access to drinking water with 0.01% of pure cis-stilbene glycoside and Western HFD. Group V: […] Body weight, food and water uptake of the mice were taken on a regular basis. After 12 weeks, all the experimental mice were sacrificed. Body weight, blood glucose and blood insulin levels were evaluated as described before. Glucose tolerance test was also carried out at the end of the study.

[6] = system: female KK mice; experiment: Animal study with trans- and cis-stilbene glycoside extracts in HFD-induced female KK mice; assay type: in vivo; conditions: 18 weeks HFD, solutions in drinking water
Description: Female KK mice were purchased from Jackson labs (Barr Harbor, Me.) and were housed in stainless steel wire-bottomed cages and acclimatized under laboratory conditions (19-23° C., humidity 60%, 12 h light/dark cycle). Normal control mice (n=10) were fed with control diet which was normal Chow 5001 from LabDiet (St. Louis, Mo.) and was composed of 28.5 kcal % protein, 58 kcal % carbohydrate and 13.5 kcal % fat. Diabetic control mice (n=10) were induced with HFD (Research Diets, New Brunswick, N.J.) composed of 20 kcal % protein, 20 kcal % carbohydrate, and 60 kcal % fat (from butter) for 18 weeks. Three solutions were administered to mice (n=10 each) on HFD ad libitum and the compositions are shown below. Solution 1: pure trans-stilbene glycoside (0.05% in drinking water), HPLC chromatogram in FIG. 3.2 (A); Solution 2: 60% ethanol extract of PM root powders, obtained according to procedure in Section 1.2.1 (proportion of cis-stilbene glycoside to trans-stilbene glycoside is approximately 1:20, 0.075% in drinking water), HPLC chromatogram in FIG. 3.2 (B); Solutions 3: obtained from exposing solution 2 under UV-light overnight (proportion of cis-stilbene glycoside to trans-stilbene glycoside is approximately 2:3, 0.075% in drinking water), HPLC chromatogram in FIG. 3.2 (C). After 18 weeks, body weight and blood glucose of all mice were measured.

[7] = system: phosphoenolpyruvate carboxykinase (PEPCK) mRNA expression; experiment: PEPCK assay (qPCR of Dex-cAMP induced PEPCK mRNA) in HepG2 cells; assay type: cell-based; conditions: for concentration dependence of PEPCK suppression: 30 μM vs 100 μM; for reduction of PEPCK mRNA compared to Dex/cAMP group: comparative Ct method; for suppression of Dex/cAMP-induced up-regulation of PEPCK transcription: normalized with β-actin, FIG. 13A
Description: The HepG2 cells were plated in 24-well tissue culture plates and were grown to near confluence in Dulbecco's modified Eagle's medium containing 2.5% (vol/vol) newborn calf serum and 2.5% (vol/vol) fetal calf serum. […]
Total RNA was extracted from HepG2 cells using Trizol reagent, following the manufacturer's instructions. RNA was quantified spectrophotometrically by absorbance measurements at 260 and 280 nm. Quality of RNA was assessed by separation in gel electrophoresis. RNA was then treated with Dnasel (Invitrogen), following the manufacturer's guidelines, to remove any traces of DNA contamination. The cDNAs were synthesized with […] of RNA for each sample, using Stratascript reverse transcriptase (Stratagene, La Jolla, Calif.), following the manufacturer's protocol. The synthesized cDNAs were diluted fourfold. Five microliters of each of these diluted samples was used for PCR reactions of 25 ηL final volume. The other components of the PCR reactions were 0.5 ηL of 6 ηM gene-specific primers and 12.5 ηL of Brilliant SYBR Green PCR master mix (containing green jump-start Taq ready mix). ROX (Stratagene, La Jolla, Calif.) was used as a reference dye. The primers were selected using the Primer Express version 2.0 software (Applied Biosystems, Foster City, Calif.). These primers generated a 76-bp product from β-actin mRNA. The intron-spanning forward primer was selected to cover the exon 9-10 boundary. The reverse primer was selected from exon 10. The oligos were synthesized by IDT. These primers generated a 74-bp product from PEPCK mRNA and a 207-bp product from genomic DNA.
Quantitative PCR (qPCR) amplifications were performed on an MX3000p system (Stratagene, La Jolla, Calif.) using one cycle at 50° C. for 2 min and one cycle of 95° C. for 10 min, followed by 40 cycles of 15 s at 95° C. and 1 min at 60° C. The dissociation curve was completed with one cycle of 1 min at 95° C., 30 s at 55° C., and 30 s at 95° C. Non-RT control and no-template control were included in each experiment as quality control steps.
PEPCK mRNA expressions were analyzed using the ΔΔCT method and normalized with respect to the expression of the β-actin house keeping gene. The ΔΔCT Values obtained from these methods reflect the relative mRNA quantities for a specific gene in response to a treatment as relative to a calibrator. The Dex-cAMP treatment (positive control) served as the calibrator sample in this study. The PECPK gene expression of the calibrator sample was assigned to a value of 1.0. A value of <1.0 indicates transcriptional down-regulation (inhibition of gene expression) relative to the calibrator. Amplification of specific transcripts was further confirmed by obtaining melting curve profiles. All samples were run in duplicate.

OC[C@H]1O[C@@H](Oc2c(O)cc(O)cc2/C=C/c2ccc(O)cc2)[C@H](O)[C@@H](O)[C@@H]1O [stilbene glycoside, 2,3,5,4-tetrahydroxystilbene 2-O-β-glucopyranoside]
antioxidant activity [1]: higher antioxidant activity than resveratrol | time of distribution ([2]; single intravenous or oral administration): ≤ 30 min | Total recovery of unchanged stilbene glycoside in bile ([2]; within 24 hr): 0.041% | Total recovery of unchanged stilbene glycoside in feces ([2]; within 24 hr): 0.06% | amount of unchanged stilbene glycoside excreted in the urine ([2]; within 24 hr): lower than Lower Limit of Quantification (LLOQ) | Absolute bioavailability [2]: 40% | form of excretion ([2]; metabolites including monoglucuronide and the deglycosidated form): excreted mainly in the forms of metabolites | serum insulin level vs diabetic control ([3]; 12 weeks HFD, 0.075% in drinking water, FIG. 6): elevated | blood / serum glucose level vs diabetic control ([3]; 12 weeks HFD, FIG. 6): elevated | glucose tolerance test: blood glucose level ([3]; 30 minutes after glucose injection (1 g/kg), FIG. 7A): the most elevated | insulin tolerance test: level of glucose ([3]; FIG. 7B): higher level of glucose | glucose tolerance test: blood glucose ([3]; at the end of the test (two hours), FIG. 7A): remained much higher than normal control and metformin groups | glucose tolerance ([3]; overall finding of glucose tolerance test): glucose intolerant | solubility [4]: soluble in water, methanol and ethanol

Cn1c(=O)c2c(ncn2C)n(C)c1=O [caffeine, reference compound]
serum glucose level [5]: significantly decrease

CN(C)C(=N)N=C(N)N [metformin, reference compound]
blood / serum glucose level vs diabetic control ([3]; 12 weeks HFD, FIG. 6): effectively brought down | insulin tolerance test: level of glucose ([3]; FIG. 7B): higher level of glucose | insulin tolerance test: blood glucose ([3]; two hours after insulin injection, FIG. 7B): dropped to a lower level than that of stilbene glycoside group

OC[C@H]1O[C@@H](Oc2c(O)cc(O)cc2/C=C/c2ccc(O)cc2)[C@H](O)[C@@H](O)[C@@H]1O [trans-stilbene glycoside, 2,3,5,4-tetrahydroxystilbene 2-O-β-glucopyranoside]
GTT: rise in blood glucose level / effect on glucose intolerance [5]: absent | serum insulin levels [5]: significantly lowered | serum glucose level [5]: significantly decrease | high fat induced body weight gain compared to diabetic control [6]: none of the three solutions significantly decreased | concentration dependence of PEPCK suppression [7]: higher concentration resulted in lower level of PEPCK transcription | reduction of PEPCK mRNA compared to Dex/cAMP group ([7]; 100 μM): 53.3% | suppression of Dex/cAMP-induced up-regulation of PEPCK transcription [7]: effectively suppress

OC[C@H]1O[C@@H](Oc2c(O)cc(O)cc2/C=C/c2ccc(O)cc2)[C@H](O)[C@@H](O)[C@@H]1O [cis-stilbene glycoside, 2,3,5,4-tetrahydroxystilbene 2-O-β-glucopyranoside]
GTT: rise in blood glucose level / effect on glucose intolerance [5]: greatly suppressed | serum insulin levels [5]: significantly lowered | serum glucose level [5]: significantly decrease | Calculated HOMA-IR lower than that in trans-stilbene glycoside group ([5]; cis group relative to trans group): 102.7% | concentration dependence of PEPCK suppression [7]: suppressed more efficiently at 30 μM than at 100 μM | reduction of PEPCK mRNA compared to Dex/cAMP group ([7]; 30 μM): 61.7% | suppression of Dex/cAMP-induced up-regulation of PEPCK transcription [7]: effectively suppress
